pIC50: −log10 of the molar value. ≈ marks a conversion by molar mass, not a printed value.
How the values were obtained:
[1] = system: Mycobacterium tuberculosis; experiment: Antimycobacterial activity against Mycobacterium tuberculosis H37Rv CNCTC My 331/88 after 14 days by micromethod; format: functional; conditions: H37Rv CNCTC My 331/88, 336 h
[2] = system: Mycobacterium tuberculosis; experiment: Antimycobacterial activity against Mycobacterium tuberculosis H37Rv CNCTC My 331/88 after 21 days by micromethod; format: functional; conditions: H37Rv CNCTC My 331/88, 504 h
Mycobacterium avium [3] = experiment: Antimycobacterial activity against Mycobacterium avium CNCTC My 330/80 after 14 days by micromethod; format: functional; conditions: CNCTC My 330/80, 336 h
Mycobacterium avium [4] = experiment: Antimycobacterial activity against Mycobacterium avium CNCTC My 330/80 after 21 days by micromethod; format: functional; conditions: CNCTC My 330/80, 504 h
Mycobacterium kansasii [5] = experiment: Antimycobacterial activity against Mycobacterium kansasii CNCTC My 235/80 after 7 days by micromethod; format: functional; conditions: CNCTC My 235/80, 168 h
Mycobacterium kansasii [6] = experiment: Antimycobacterial activity against Mycobacterium kansasii CNCTC My 235/80 after 14 days by micromethod; format: functional; conditions: CNCTC My 235/80, 336 h
Mycobacterium kansasii [7] = experiment: Antimycobacterial activity against Mycobacterium kansasii CNCTC My 235/80 after 21 days by micromethod; format: functional; conditions: CNCTC My 235/80, 504 h
Mycobacterium kansasii [8] = experiment: Antimycobacterial activity against Mycobacterium kansasii isolate 6509/96 after 7 days by micromethod; format: functional; conditions: isolate 6509/96, 168 h
Mycobacterium kansasii [9] = experiment: Antimycobacterial activity against Mycobacterium kansasii isolate 6509/96 after 14 days by micromethod; format: functional; conditions: isolate 6509/96, 336 h
Mycobacterium kansasii [10] = experiment: Antimycobacterial activity against Mycobacterium kansasii isolate 6509/96 after 21 days by micromethod; format: functional; conditions: isolate 6509/96, 504 h
CHO-K1 = experiment: Cytotoxicity against CHOK1 cells after 24 hrs by MTT assay; format: cell-based; conditions: Cricetulus griseus, CHO-K1, 24 h

Row | SMILES | MIC99 [1] [µM] | MIC99 [2] [µM] | MIC99 (Mycobacterium avium [3]) [µM] | MIC99 (Mycobacterium avium [4]) [µM] | MIC99 (Mycobacterium kansasii [5]) [µM] | MIC99 (Mycobacterium kansasii [6]) [µM] | MIC99 (Mycobacterium kansasii [7]) [µM] | MIC99 (Mycobacterium kansasii [8]) [µM] | MIC99 (Mycobacterium kansasii [9]) [µM] | MIC99 (Mycobacterium kansasii [10]) [µM] | pIC50 (CHO-K1)
1 | O=[N+]([O-])c1cc(-c2nnn(Cc3c(F)cccc3Cl)n2)cc([N+](=O)[O-])c1 | 0.5 (≈ 0.189 µg/mL) | 0.5 (≈ 0.189 µg/mL) | 4 (≈ 1.51 µg/mL) | 8 (≈ 3.03 µg/mL) | 0.5 (≈ 0.189 µg/mL) | 1 (≈ 0.379 µg/mL) | 1 (≈ 0.379 µg/mL) | 0.5 (≈ 0.189 µg/mL) | 1 (≈ 0.379 µg/mL) | 1 (≈ 0.379 µg/mL) | –
2 | O=[N+]([O-])c1cc(-c2nnnn2Cc2ccc(Cl)cc2)cc([N+](=O)[O-])c1 | 4 (≈ 1.44 µg/mL) | 4 (≈ 1.44 µg/mL) | 16 (≈ 5.77 µg/mL) | 16 (≈ 5.77 µg/mL) | 8 (≈ 2.89 µg/mL) | 16 (≈ 5.77 µg/mL) | 16 (≈ 5.77 µg/mL) | 4 (≈ 1.44 µg/mL) | 8 (≈ 2.89 µg/mL) | 8 (≈ 2.89 µg/mL) | –
3 | O=[N+]([O-])c1cc(-c2nnn(Cc3cc(F)cc(F)c3)n2)cc([N+](=O)[O-])c1 | 0.25 (≈ 0.0906 µg/mL) | 5 (≈ 1.81 µg/mL) | 8 (≈ 2.9 µg/mL) | 16 (≈ 5.8 µg/mL) | 1 (≈ 0.362 µg/mL) | 2 (≈ 0.725 µg/mL) | 4 (≈ 1.45 µg/mL) | 1 (≈ 0.362 µg/mL) | 2 (≈ 0.725 µg/mL) | 4 (≈ 1.45 µg/mL) | –
4 | O=[N+]([O-])c1cc(-c2nnn(CSc3nnnn3C3CCCCC3)n2)cc([N+](=O)[O-])c1 | 0.03 (≈ 0.013 µg/mL) | 0.03 (≈ 0.013 µg/mL) | 8 (≈ 3.46 µg/mL) | 16 (≈ 6.92 µg/mL) | 0.06 (≈ 0.0259 µg/mL) | 0.06 (≈ 0.0259 µg/mL) | 0.06 (≈ 0.0259 µg/mL) | 0.03 (≈ 0.013 µg/mL) | 0.03 (≈ 0.013 µg/mL) | 0.03 (≈ 0.013 µg/mL) | 3.85
5 | O=[N+]([O-])c1cc(-c2nnn(Cc3ccc(F)c(F)c3)n2)cc([N+](=O)[O-])c1 | 0.25 (≈ 0.0906 µg/mL) | 0.5 (≈ 0.181 µg/mL) | 4 (≈ 1.45 µg/mL) | 8 (≈ 2.9 µg/mL) | 1 (≈ 0.362 µg/mL) | 2 (≈ 0.725 µg/mL) | 4 (≈ 1.45 µg/mL) | 1 (≈ 0.362 µg/mL) | 2 (≈ 0.725 µg/mL) | 2 (≈ 0.725 µg/mL) | –
6 | O=[N+]([O-])c1cc(Sc2nnnn2Cc2ccccc2)cc([N+](=O)[O-])c1 | 1 (≈ 0.358 µg/mL) | 2 (≈ 0.717 µg/mL) | 32 (≈ 11.5 µg/mL) | 62.5 (≈ 22.4 µg/mL) | 8 (≈ 2.87 µg/mL) | 8 (≈ 2.87 µg/mL) | 16 (≈ 5.73 µg/mL) | 2 (≈ 0.717 µg/mL) | 4 (≈ 1.43 µg/mL) | 4 (≈ 1.43 µg/mL) | 3.90
7 | O=[N+]([O-])c1cc(-c2nnn(CCCSc3nnnn3-c3ccc(Br)cc3)n2)cc([N+](=O)[O-])c1 | 0.5 (≈ 0.267 µg/mL) | 0.5 (≈ 0.267 µg/mL) | 1 (≈ 0.533 µg/mL) | 2 (≈ 1.07 µg/mL) | 0.5 (≈ 0.267 µg/mL) | 1 (≈ 0.533 µg/mL) | 2 (≈ 1.07 µg/mL) | 0.5 (≈ 0.267 µg/mL) | 1 (≈ 0.533 µg/mL) | 1 (≈ 0.533 µg/mL) | –
8 | O=[N+]([O-])c1cc(-c2nnn(CCCCSc3nnnn3-c3ccc(Br)cc3)n2)cc([N+](=O)[O-])c1 | 0.5 (≈ 0.274 µg/mL) | 0.5 (≈ 0.274 µg/mL) | 1 (≈ 0.547 µg/mL) | 1 (≈ 0.547 µg/mL) | 0.5 (≈ 0.274 µg/mL) | 1 (≈ 0.547 µg/mL) | 1 (≈ 0.547 µg/mL) | 1 (≈ 0.547 µg/mL) | 1 (≈ 0.547 µg/mL) | 2 (≈ 1.09 µg/mL) | –
9 | O=[N+]([O-])c1cc(-c2nnn(Cc3ccccc3)n2)cc([N+](=O)[O-])c1 | 0.5 (≈ 0.163 µg/mL) | 1 (≈ 0.326 µg/mL) | 8 (≈ 2.61 µg/mL) | 8 (≈ 2.61 µg/mL) | 1 (≈ 0.326 µg/mL) | 2 (≈ 0.653 µg/mL) | 2 (≈ 0.653 µg/mL) | 1 (≈ 0.326 µg/mL) | 2 (≈ 0.653 µg/mL) | 2 (≈ 0.653 µg/mL) | 3.82
10 | O=[N+]([O-])c1cc(-c2nnn(Cc3cccc(F)c3)n2)cc([N+](=O)[O-])c1 | 1 (≈ 0.344 µg/mL) | 1 (≈ 0.344 µg/mL) | 8 (≈ 2.75 µg/mL) | 16 (≈ 5.51 µg/mL) | 1 (≈ 0.344 µg/mL) | 2 (≈ 0.689 µg/mL) | 2 (≈ 0.689 µg/mL) | 0.5 (≈ 0.172 µg/mL) | 1 (≈ 0.344 µg/mL) | 2 (≈ 0.689 µg/mL) | 3.50
11 | NNC(=O)c1ccncc1 [ISONIAZID] | – | – | > 250 | – | – | > 250 | – | 4 (≈ 0.549 µg/mL) | 4 (≈ 0.549 µg/mL) | 4 (≈ 0.549 µg/mL) | –
12 | O=[N+]([O-])c1cc(Sc2nnnn2C2CCCCC2)cc([N+](=O)[O-])c1 | 1 (≈ 0.35 µg/mL) | 1 (≈ 0.35 µg/mL) | 32 (≈ 11.2 µg/mL) | 32 (≈ 11.2 µg/mL) | 1 (≈ 0.35 µg/mL) | 1 (≈ 0.35 µg/mL) | 1 (≈ 0.35 µg/mL) | 1 (≈ 0.35 µg/mL) | 1 (≈ 0.35 µg/mL) | 1 (≈ 0.35 µg/mL) | 3.82
13 | COc1ccccc1-n1nnnc1Sc1cc([N+](=O)[O-])cc([N+](=O)[O-])c1 | 4 (≈ 1.5 µg/mL) | 8 (≈ 2.99 µg/mL) | 16 (≈ 5.99 µg/mL) | 32 (≈ 12 µg/mL) | 16 (≈ 5.99 µg/mL) | 32 (≈ 12 µg/mL) | 62.5 (≈ 23.4 µg/mL) | 8 (≈ 2.99 µg/mL) | 32 (≈ 12 µg/mL) | 32 (≈ 12 µg/mL) | –

From ChEMBL document CHEMBL4011590, “Structure-activity relationship studies on 3,5-dinitrophenyl tetrazoles as antitubercular agents” (Eur J Med Chem, 2017)
